# Assay results taken from ChEMBL document CHEMBL4828734, “Discovery of High-Affinity Inhibitors of the BPTF Bromodomain” (J Med Chem, 2021).
# Activity calls are given as the source filed them. No cut-off for these calls is given here.
# Assays:
# [1] = molecular target: T1, Nucleosome-remodeling factor subunit BPTF (Homo sapiens, UniProt Q12830); test: Inhibition of N-terminal GST-tagged human BPTF (2914 to 3037 residues) expressed in Escherichia coli BL21-CodonPlus (DE3) cells by HTRF assay
# [2] = molecular target: SWI/SNF-related matrix-associated actin-dependent regulator of chromatin subfamily A member 2 (Homo sapiens) (UniProt P51531); test: Binding affinity to SMARCA2-BRD (unknown origin) assessed as change in melting temperature at 50 uM by thermal shift assay
# SWI/SNF-related matrix-associated actin-dependent regulator of chromatin subfamily A member 2 (Homo sapiens), sequence (P51531 whole entry, the tested form may be a part): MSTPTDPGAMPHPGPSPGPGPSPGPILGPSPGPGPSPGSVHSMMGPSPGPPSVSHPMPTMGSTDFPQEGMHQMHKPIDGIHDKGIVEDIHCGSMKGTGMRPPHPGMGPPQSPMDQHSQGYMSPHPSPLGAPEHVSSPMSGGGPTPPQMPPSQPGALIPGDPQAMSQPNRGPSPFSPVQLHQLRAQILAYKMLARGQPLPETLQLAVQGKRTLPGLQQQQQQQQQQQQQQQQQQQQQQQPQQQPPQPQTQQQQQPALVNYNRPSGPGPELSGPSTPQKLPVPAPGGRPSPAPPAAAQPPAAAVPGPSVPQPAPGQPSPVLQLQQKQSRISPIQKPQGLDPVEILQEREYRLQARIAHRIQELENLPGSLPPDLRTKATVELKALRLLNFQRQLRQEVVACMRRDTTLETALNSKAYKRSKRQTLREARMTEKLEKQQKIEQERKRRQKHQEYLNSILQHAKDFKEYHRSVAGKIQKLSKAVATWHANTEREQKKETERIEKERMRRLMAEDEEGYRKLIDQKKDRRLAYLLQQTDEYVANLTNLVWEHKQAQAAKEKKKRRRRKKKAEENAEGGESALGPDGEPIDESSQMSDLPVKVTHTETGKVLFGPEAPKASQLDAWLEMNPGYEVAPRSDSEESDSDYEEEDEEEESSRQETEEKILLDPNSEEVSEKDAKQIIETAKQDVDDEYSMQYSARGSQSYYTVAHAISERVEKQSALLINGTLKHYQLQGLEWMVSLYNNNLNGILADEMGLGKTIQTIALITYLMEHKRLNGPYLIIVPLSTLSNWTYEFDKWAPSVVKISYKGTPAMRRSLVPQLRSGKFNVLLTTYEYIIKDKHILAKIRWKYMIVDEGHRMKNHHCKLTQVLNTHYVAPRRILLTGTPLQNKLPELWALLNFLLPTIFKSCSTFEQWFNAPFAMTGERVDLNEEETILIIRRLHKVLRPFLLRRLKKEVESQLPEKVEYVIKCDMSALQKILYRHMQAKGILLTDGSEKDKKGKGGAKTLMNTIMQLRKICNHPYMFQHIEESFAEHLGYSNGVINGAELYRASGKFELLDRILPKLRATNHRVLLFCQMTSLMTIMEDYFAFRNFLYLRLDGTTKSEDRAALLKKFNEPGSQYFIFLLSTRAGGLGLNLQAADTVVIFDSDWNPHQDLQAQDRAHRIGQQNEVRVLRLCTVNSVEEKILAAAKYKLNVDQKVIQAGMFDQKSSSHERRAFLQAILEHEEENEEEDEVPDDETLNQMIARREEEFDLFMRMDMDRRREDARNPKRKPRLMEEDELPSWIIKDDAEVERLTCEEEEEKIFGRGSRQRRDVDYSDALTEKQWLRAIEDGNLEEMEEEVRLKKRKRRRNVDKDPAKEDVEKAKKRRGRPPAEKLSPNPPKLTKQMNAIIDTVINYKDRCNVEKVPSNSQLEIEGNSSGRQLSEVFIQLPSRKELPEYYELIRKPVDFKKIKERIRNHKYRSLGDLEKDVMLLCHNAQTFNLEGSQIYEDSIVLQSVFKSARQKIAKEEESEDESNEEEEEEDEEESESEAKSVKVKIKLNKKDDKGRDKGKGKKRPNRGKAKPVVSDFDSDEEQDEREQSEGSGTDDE
# [3] = molecular target: Bromodomain-containing protein 4 (Homo sapiens) (UniProt O60885); test: Inhibition of BRD4-BD2 (unknown origin) at 1 uM using acetylated H4 as substrate incubated for 1 hr by AlphaScreen assay
# [4] = molecular target: Bromodomain-containing protein 2 (Homo sapiens) (UniProt P25440); test: Binding affinity to BRD2-BD2 (unknown origin) assessed as change in melting temperature at 50 uM by thermal shift assay
# Bromodomain-containing protein 2 (Homo sapiens), sequence (P25440 whole entry, looked up): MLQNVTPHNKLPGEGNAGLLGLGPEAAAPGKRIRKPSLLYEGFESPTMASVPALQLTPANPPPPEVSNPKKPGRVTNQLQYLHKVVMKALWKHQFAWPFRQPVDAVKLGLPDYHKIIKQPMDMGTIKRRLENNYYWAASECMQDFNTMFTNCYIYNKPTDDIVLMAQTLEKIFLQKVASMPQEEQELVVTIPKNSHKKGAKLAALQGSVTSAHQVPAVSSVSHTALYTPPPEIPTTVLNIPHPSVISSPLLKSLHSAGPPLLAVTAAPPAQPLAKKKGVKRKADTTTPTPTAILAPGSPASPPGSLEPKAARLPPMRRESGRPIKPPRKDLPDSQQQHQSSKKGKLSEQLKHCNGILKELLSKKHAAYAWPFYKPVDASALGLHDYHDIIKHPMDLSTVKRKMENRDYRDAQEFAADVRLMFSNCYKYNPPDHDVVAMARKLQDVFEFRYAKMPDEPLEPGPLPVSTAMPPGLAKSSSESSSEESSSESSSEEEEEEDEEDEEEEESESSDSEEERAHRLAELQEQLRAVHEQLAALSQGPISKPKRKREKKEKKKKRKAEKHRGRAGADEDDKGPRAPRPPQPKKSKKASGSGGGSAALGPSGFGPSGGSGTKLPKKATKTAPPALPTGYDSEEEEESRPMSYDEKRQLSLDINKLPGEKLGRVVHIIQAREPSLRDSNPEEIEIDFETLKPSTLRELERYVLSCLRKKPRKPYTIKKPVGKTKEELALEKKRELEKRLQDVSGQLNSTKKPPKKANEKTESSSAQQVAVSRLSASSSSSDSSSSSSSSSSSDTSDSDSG
# [5] = molecular target: Bromodomain-containing protein 2 (Homo sapiens) (UniProt P25440); test: Inhibition of BRD2-BD2 (unknown origin) at 1 uM using acetylated H4 as substrate incubated for 1 hr by AlphaScreen assay
# [6] = molecular target: Histone acetyltransferase p300 (Homo sapiens) (UniProt Q09472); test: Binding affinity to p300-BRD (unknown origin) assessed as change in melting temperature at 50 uM by thermal shift assay
# Histone acetyltransferase p300 (Homo sapiens), sequence (Q09472 whole entry): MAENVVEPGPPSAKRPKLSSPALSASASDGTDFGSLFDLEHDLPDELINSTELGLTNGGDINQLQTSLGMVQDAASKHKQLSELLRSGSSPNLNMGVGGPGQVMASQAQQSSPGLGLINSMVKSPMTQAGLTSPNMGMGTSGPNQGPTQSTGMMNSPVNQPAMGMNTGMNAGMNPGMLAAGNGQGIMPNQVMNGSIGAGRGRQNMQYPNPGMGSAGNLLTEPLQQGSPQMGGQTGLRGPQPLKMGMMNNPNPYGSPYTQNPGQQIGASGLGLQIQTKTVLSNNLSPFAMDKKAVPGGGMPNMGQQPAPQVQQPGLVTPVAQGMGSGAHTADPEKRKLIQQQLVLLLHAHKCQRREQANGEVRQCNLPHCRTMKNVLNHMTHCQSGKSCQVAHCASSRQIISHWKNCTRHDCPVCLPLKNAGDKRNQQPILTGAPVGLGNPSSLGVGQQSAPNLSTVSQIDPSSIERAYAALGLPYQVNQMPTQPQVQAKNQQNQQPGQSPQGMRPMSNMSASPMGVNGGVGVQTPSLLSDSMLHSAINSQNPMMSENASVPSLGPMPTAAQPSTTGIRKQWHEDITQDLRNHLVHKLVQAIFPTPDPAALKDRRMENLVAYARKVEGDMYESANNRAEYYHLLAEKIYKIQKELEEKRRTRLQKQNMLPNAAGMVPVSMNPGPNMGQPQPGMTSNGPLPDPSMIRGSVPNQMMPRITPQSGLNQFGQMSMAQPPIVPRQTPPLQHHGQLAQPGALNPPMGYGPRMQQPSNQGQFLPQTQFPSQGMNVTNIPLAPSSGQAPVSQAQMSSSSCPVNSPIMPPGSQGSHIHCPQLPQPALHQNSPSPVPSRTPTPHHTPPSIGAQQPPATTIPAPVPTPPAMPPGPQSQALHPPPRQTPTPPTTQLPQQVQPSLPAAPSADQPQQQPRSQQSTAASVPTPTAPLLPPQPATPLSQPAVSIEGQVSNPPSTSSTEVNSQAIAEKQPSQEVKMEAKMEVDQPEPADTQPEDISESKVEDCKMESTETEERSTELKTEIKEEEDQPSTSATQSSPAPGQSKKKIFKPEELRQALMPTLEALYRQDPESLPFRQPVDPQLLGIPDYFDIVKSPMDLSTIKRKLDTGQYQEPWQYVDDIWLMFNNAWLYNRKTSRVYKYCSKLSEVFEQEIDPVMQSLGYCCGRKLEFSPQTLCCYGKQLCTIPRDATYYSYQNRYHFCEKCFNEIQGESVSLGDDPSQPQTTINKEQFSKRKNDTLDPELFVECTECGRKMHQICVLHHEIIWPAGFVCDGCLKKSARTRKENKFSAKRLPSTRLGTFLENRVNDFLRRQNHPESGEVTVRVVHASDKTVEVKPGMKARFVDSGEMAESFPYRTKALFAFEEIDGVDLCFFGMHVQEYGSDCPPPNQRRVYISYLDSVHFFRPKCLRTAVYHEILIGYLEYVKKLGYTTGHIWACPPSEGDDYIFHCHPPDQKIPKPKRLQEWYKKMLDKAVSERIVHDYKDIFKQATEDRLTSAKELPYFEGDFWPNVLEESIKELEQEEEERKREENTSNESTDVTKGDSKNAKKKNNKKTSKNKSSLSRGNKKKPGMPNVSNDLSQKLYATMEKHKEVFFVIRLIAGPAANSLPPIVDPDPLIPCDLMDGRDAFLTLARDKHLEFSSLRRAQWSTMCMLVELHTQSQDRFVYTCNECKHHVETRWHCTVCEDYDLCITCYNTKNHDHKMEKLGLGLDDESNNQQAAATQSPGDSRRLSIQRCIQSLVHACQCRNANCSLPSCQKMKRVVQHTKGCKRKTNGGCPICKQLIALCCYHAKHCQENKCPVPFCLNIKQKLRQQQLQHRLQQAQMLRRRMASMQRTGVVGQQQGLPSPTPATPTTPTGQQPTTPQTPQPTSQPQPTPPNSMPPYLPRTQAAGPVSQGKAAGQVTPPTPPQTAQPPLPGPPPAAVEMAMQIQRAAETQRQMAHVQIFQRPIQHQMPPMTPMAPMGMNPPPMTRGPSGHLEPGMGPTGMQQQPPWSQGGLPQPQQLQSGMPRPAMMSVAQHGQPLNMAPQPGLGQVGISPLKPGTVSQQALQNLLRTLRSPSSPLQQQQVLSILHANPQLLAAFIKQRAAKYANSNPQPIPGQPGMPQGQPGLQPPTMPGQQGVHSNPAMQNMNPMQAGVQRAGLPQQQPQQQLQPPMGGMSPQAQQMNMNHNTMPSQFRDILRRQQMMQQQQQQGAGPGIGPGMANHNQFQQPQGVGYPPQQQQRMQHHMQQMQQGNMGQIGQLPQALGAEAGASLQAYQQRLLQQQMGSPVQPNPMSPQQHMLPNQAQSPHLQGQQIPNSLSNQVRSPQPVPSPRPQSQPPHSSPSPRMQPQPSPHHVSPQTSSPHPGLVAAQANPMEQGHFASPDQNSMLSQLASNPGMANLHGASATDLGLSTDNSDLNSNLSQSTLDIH
# [7] = molecular target: Histone acetyltransferase p300 (Homo sapiens) (UniProt Q09472); test: Inhibition of p300-BRD (unknown origin) at 1 uM using acetylated H4 as substrate incubated for 1 hr by AlphaScreen assay
# MV4-11 [8] = test: Antiproliferative activity against human MC4-11 cells assessed as reduction in cell viability after 5 days by Celltiter-Glo assay; conditions: MV4-11, 120 h
# MV4-11 [9] = test: Induction of apoptosis in human MV4-11 cells at 5 to 20 uM after 24 hrs by Annexin V-FITC and propidium iodide staining based flow cytometry analysis; type: functional, cell-based; conditions: dose 5-20 µM
# [10] = molecular target: Bromodomain-containing protein 2 (Homo sapiens) (UniProt P25440); test: Binding affinity to BRD2-BD1 (unknown origin) assessed as change in melting temperature at 50 uM by thermal shift assay
# [11] = molecular target: T1, Nucleosome-remodeling factor subunit BPTF; test: Displacement of Halo-tagged histone H4 from NanoLuc-tagged BPTF (unknown origin) expressed in HEK293 cells by NanoBRET assay; type: cell-based
# MV4-11 [12] = test: Downregulation of c-Myc protein expression in human MV4-11 cells after 24 hrs by Western blot analysis; type: functional, cell-based; conditions: dose 0.6-50 µM
# [13] = molecular target: Bromodomain-containing protein 2 (Homo sapiens) (UniProt P25440); test: Inhibition of BRD2-BD1 (unknown origin) at 1 uM using acetylated H4 as substrate incubated for 1 hr by AlphaScreen assay
# MRC5 = test: Cytotoxicity against human MRC5 assessed as reduction in cell viability at 100 uM after 3 days by Celltiter-Glo assay; type: cell-based; conditions: mrc5, 72 h, time 3 day
# [14] = molecular target: Bromodomain-containing protein 4 (Homo sapiens) (UniProt O60885); test: Binding affinity to BRD4-BD1 (unknown origin) assessed as change in melting temperature at 50 uM by thermal shift assay
# [15] = molecular target: CREB-binding protein (Homo sapiens) (UniProt Q92793); test: Inhibition of CBP-BRD (unknown origin) at 1 uM using acetylated H4 as substrate incubated for 1 hr by AlphaScreen assay
# [16] = molecular target: T1, Nucleosome-remodeling factor subunit BPTF; test: Binding affinity to N-terminal GST-tagged human BPTF (2914 to 3037 residues) expressed in Escherichia coli BL21-CodonPlus (DE3) cells by SPR assay
# [17] = molecular target: T1, Nucleosome-remodeling factor subunit BPTF; test: Inhibition of BPTF in human MV4-11 cells assessed as reduction in c-Myc mRNA level incubated for 24 hrs by RT-PCR analysis; type: cell-based; conditions: dose 2.5-20 µM
# [18] = molecular target: CREB-binding protein (Homo sapiens) (UniProt Q92793); test: Binding affinity to CBP-BRD (unknown origin) assessed as change in melting temperature at 50 uM by thermal shift assay
# [19] = molecular target: T1, Nucleosome-remodeling factor subunit BPTF; test: Inhibition of N-terminal GST-tagged human BPTF (2914 to 3037 residues) expressed in Escherichia coli BL21-CodonPlus (DE3) cells at 1 uM incubated for 1 hr by AlphaScreen assay relative to control
# [20] = molecular target: T1, Nucleosome-remodeling factor subunit BPTF; test: Binding affinity to N-terminal GST-tagged human BPTF (2914 to 3037 residues) expressed in Escherichia coli BL21-CodonPlus (DE3) cells assessed as change in melting temperature at 100 uM by thermal shift assay
# [21] = molecular target: T1, Nucleosome-remodeling factor subunit BPTF; test: Binding affinity to N-terminal GST-tagged human BPTF (2914 to 3037 residues) expressed in Escherichia coli BL21-CodonPlus (DE3) cells at 200 uM by CPMG NMR spectroscopy
# [22] = molecular target: T1, Nucleosome-remodeling factor subunit BPTF; test: Binding affinity to N-terminal GST-tagged human BPTF (2914 to 3037 residues) expressed in Escherichia coli BL21-CodonPlus (DE3) cells assessed as change in melting temperature at 25 uM by thermal shift assay
# MV4-11 [23] = test: Induction of cell cycle arrest in human MV4-11 cells assessed as accumulation at G1 phase after 24 hrs by propidium iodide staining based flow cytometry analysis; type: functional; conditions: dose 5-20 µM
# MV4-11 [24] = test: Induction of cell cycle arrest in human MV4-11 cells assessed as accumulation at S phase after 24 hrs by propidium iodide staining based flow cytometry analysis; type: functional
# [25] = molecular target: Bromodomain-containing protein 4 (Homo sapiens) (UniProt O60885); test: Inhibition of BRD4-BD1 (unknown origin) at 1 uM using acetylated H4 as substrate incubated for 1 hr by AlphaScreen assay
# [26] = molecular target: T1, Nucleosome-remodeling factor subunit BPTF; test: Inhibition of BPTF in human MV4-11 cells assessed as reduction in bcl2 mRNA level incubated for 24 hrs by RT-PCR analysis; type: cell-based; conditions: dose 2.5-20 µM
# [27] = molecular target: T1, Nucleosome-remodeling factor subunit BPTF; test: Binding affinity to N-terminal GST-tagged human BPTF (2914 to 3037 residues) expressed in Escherichia coli BL21-CodonPlus (DE3) cells assessed as change in melting temperature at 50 uM by thermal shift assay
# [28] = molecular target: SWI/SNF-related matrix-associated actin-dependent regulator of chromatin subfamily A member 2 (Homo sapiens) (UniProt P51531); test: Inhibition of SMARCA2-BRD (unknown origin) at 1 uM using acetylated H4 as substrate incubated for 1 hr by AlphaScreen assay
# [29] = molecular target: T1, Nucleosome-remodeling factor subunit BPTF; test: Binding affinity to N-terminal GST-tagged human BPTF (2914 to 3037 residues) expressed in Escherichia coli BL21-CodonPlus (DE3) cells at 200 uM by STD NMR spectroscopy
# HUVEC = test: Cytotoxicity against HUVEC assessed as reduction in cell viability at 100 uM after 3 days by Celltiter-Glo assay; type: cell-based; conditions: human, 72 h, time 3 day
# [30] = molecular target: Bromodomain-containing protein 4 (Homo sapiens) (UniProt O60885); test: Binding affinity to BRD4-BD2 (unknown origin) assessed as change in melting temperature at 50 uM by thermal shift assay
# [31] = molecular target: T1, Nucleosome-remodeling factor subunit BPTF; test: Inhibition of BPTF in human MV4-11 cells assessed as reduction in CDK6 mRNA level incubated for 24 hrs by RT-PCR analysis; type: cell-based; conditions: dose 2.5-20 µM
# [32] = molecular target: T1, Nucleosome-remodeling factor subunit BPTF; test: Binding affinity to BPTF (unknown origin)
# [33] = molecular target: T1, Nucleosome-remodeling factor subunit BPTF
# Description: Binding affinity to BPTF (unknown origin) expressed in Escherichia coli BL21 (DE3) cells by SPR analysis
# [34] = molecular target: T1, Nucleosome-remodeling factor subunit BPTF; test: Binding affinity to N-terminal GST-tagged human BPTF (2914 to 3037 residues) expressed in Escherichia coli BL21-CodonPlus (DE3) cells assessed as change in melting temperature at 12.5 uM by thermal shift assay
compound,measurement,setting,value
CCCCNc1cc(-c2ccc3c(ccn3CCCN(C)C)c2)nc(S(C)(=O)=O)n1,IC50,[1],114 nM
CCCNc1cc(-c2cc(OC)c3c(ccn3CCCN(C)C)c2)nc(S(C)(=O)=O)n1,IC50,[1],63.8 nM
CN(C)CCCn1ccc2cc(-c3nc(S(C)(=O)=O)nc4[nH]ccc34)ccc21,Activity,[2],inactive
same,inhibition,[3],inactive
same,Activity,[4],inactive
same,inhibition,[5],inactive
same,Activity,[6],inactive
same,inhibition,[7],inactive
same,IC50,MV4-11 [8],890 nM
same,Activity,MV4-11 [9],Active
same,Activity,[10],inactive
same,EC50,[11],120 nM
same,Activity,MV4-11 [12],Dose-Dependent Effect
same,inhibition,[13],inactive
same,Activity,MRC5,Non-Toxic
same,IC50,[1],26.9 nM
same,Activity,[14],inactive
same,inhibition,[15],inactive
same,Kd,[16],20.7 nM
same,inhibition,[17],Dose-Dependent Effect
same,Activity,[18],inactive
same,inhibition,[19],100%
same,ΔTm,[20],7.66 °C
same,Activity,[21],Active
same,ΔTm,[22],5.02 °C
same,Activity,MV4-11 [23],Dose-Dependent Effect
same,Activity,MV4-11 [24],Dose-Dependent Effect
same,inhibition,[25],inactive
same,inhibition,[26],Dose-Dependent Effect
same,ΔTm,[27],6.5 °C
same,inhibition,[28],inactive
same,Activity,[29],Active
same,Activity,HUVEC,Non-Toxic
same,Activity,[30],inactive
same,inhibition,[31],Dose-Dependent Effect
CNc1cc(-c2ccc3ccn(CCCN(C)C)c3c2)nc(S(C)(=O)=O)n1,IC50,[1],2100 nM
CCOc1c(I)cc(C(N)=O)cc1OC,Kd,[32],17900 nM
CN(C)CCCOc1ccc(-c2cc(NCCCn3cccn3)nc(S(C)(=O)=O)n2)cc1,Kd,[32],120 nM
same,Kd,[33],200 nM
CNc1cc(-c2ccc3c(ccn3CCCN(C)C)c2)nc([S+](C)[O-])n1 (stereo not drawn),IC50,[1],59.3 nM
Cc1cn(CCCN(C)C)c2ccc(-c3nc(S(C)(=O)=O)nc4[nH]ccc34)cc12,IC50,[1],157 nM
CNc1cc(-c2ccc3c(ccn3CCCN(C)C)c2)nc(S(C)(=O)=O)n1,IC50,[1],32.7 nM
CCC(C)Nc1cc(-c2ccc3c(ccn3CCCN(C)C)c2)nc(S(C)(=O)=O)n1 (stereo not drawn),IC50,[1],288 nM
CCNc1cc(-c2ccc3c(ccn3CCCN(C)C)c2)nc(S(C)(=O)=O)n1,IC50,[1],28.8 nM
CN(C)CCCn1ccc2cc(-c3cc(N(C)C)nc(S(C)(=O)=O)n3)ccc21,IC50,[1],14700 nM
CNc1cc(-c2cccc3ncccc23)nc(S(C)(=O)=O)n1,IC50,[1],1700 nM
CNc1cc(-c2ccc3c(ccn3CCN(C)C)c2)nc(S(C)(=O)=O)n1,IC50,[1],36.9 nM
Cc1c(Nc2ccc(S(=O)(=O)N3CCN(C)CC3)cc2F)nc2ccc(-c3cnn(C4CC4)c3)cn2c1=O,Kd,[32],71 nM
CNc1cc(-c2ccccc2)nc(S(C)(=O)=O)n1,IC50,[1],7800 nM
CCCNc1cc(-c2ccc3c(c2)c(C)cn3CCCN(C)C)nc(S(C)(=O)=O)n1,IC50,[1],58.6 nM
CNc1cc(-c2ccc3[nH]ccc3c2)nc(S(C)(=O)=O)n1,ΔTm,[34],1.22 °C
same,IC50,[1],698 nM
same,Kd,[16],2810 nM
same,ΔTm,[20],2.4 °C
same,ΔTm,[22],1.29 °C
same,ΔTm,[27],1.67 °C
CCCNc1cc(-c2ccc3c(ccn3CCCN(C)C)c2)nc([S+](C)[O-])n1 (stereo not drawn),IC50,[1],145 nM
CCCNc1cc(-c2ccc3c(ccn3CCCN(C)C)c2)nc(S(C)(=O)=O)n1,ΔTm,[34],3.87 °C
same,IC50,[1],16 nM
same,Kd,[16],49600 nM
same,ΔTm,[20],8.9 °C
same,ΔTm,[22],6.12 °C
same,ΔTm,[27],7.97 °C
